Reference: paper PMC7155171, “Probing the Open Global Health Chemical Diversity Library for Multistage-Active Starting Points for Next-Generation Antimalarials” (ACS Infectious Diseases, 2020)

Experiments:
[1] = system: P. berghei liver stage (PbLuc); assay: P. berghei luciferase liver stage (PbLuc) assay in HepG2-A16-CD81 hepatocytes; type: cell-based, Plasmodium berghei; settings: Plasmodium berghei; for IC50: HepG2-A16-CD81, 12pt dose response, read-out: PbLuc 12pt dose response: IC50; for Emax: HepG2-A16-CD81, 48 h, 12pt dose response, maximum inhibition
[2] = HepG2 cytotoxicity screening (CellTiter-Glo); settings: human, uninfected HepG2-A16-CD81 (EGFP) hepatocytes
[3] = system: HepG2-A16-CD81 hepatocytes; assay: HepG2 cytotoxicity screening (CellTiter-Glo); settings: for HepG2 cytotoxicity 12pt dose response: Maximum inhibition (%): 12pt dose response
[4] = molecular target: recombinant firefly luciferase (Photinus pyralis, UniProt P08659); assay: biochemical; settings: dose response; for Emax: maximum inhibition, read-out: rLuc inhibition dose response: Maximum inhibition (%); for IC50: read-out: rLuc inhibition dose response: IC50
recombinant firefly luciferase, sequence (P08659 whole entry): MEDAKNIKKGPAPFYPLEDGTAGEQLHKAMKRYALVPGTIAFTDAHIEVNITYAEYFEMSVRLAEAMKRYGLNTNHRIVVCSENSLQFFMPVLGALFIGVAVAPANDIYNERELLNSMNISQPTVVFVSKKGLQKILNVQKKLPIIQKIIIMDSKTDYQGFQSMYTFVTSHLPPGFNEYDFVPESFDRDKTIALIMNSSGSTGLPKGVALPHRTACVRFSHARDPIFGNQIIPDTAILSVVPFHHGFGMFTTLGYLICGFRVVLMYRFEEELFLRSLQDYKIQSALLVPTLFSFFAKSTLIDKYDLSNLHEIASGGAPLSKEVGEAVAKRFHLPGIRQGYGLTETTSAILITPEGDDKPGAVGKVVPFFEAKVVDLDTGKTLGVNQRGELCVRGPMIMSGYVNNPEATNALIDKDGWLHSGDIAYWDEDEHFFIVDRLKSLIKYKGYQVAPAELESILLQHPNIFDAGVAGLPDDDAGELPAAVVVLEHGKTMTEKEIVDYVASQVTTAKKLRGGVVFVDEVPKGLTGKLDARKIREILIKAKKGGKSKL

Row | SMILES | IC50 [1] [µM] | Emax [1] [%] | IC50 [2] [µM] | HepG2 Cytotoxicity primary screen (2uM): % Inhibition [3] [%] | HepG2 cytotoxicity 12pt dose response: Maximum inhibition (%) [3] [%] | Emax [4] [%] | IC50 [4] [µM] | inhibition at 2 µM [2] [%] | inhibition at 2 µM ([1]; HepG2-A16-CD81, primary screen, 2 uM) [%] | inhibition at 10 µM [2] [%]
1 | CCc1ccc(-c2ncc3c(n2)N(C)CCN(CCN(C)C)C3=O)cc1 [UCSD-0824219] | 12.1 | 81.1 | > 25 | 4.38 | 6.88 | 7.09 | > 25 | – | – | –
2 | Cc1ccc(Sc2ccc(CN3CCC4(CCCNC4=O)C3)o2)cc1 (stereo not drawn) [UCSD-0825128] | 14.7 | 95 | > 25 | -4.20 | 8.34 | 21.8 | > 25 | – | – | –
3 | CC1(c2ccccc2)CCCN(Cc2cncn2C2CCCC2)C1 (stereo not drawn) [UCSD-0827293] | 13.5 | 95.5 | 18.7 | -6.73 | 58 | 7.12 | > 25 | – | – | –
4 | Clc1ccccc1-c1cc(CNc2ncnc3c2CCNCC3)no1 [UCSD-0827811] | 13.6 | 93.4 | > 25 | -1.07 | 49.9 | 12.2 | > 25 | – | – | –
5 | CC(C)CN1CCCC1c1ccc(C(=O)Nc2cccnc2)s1 (stereo not drawn) [UCSD-0828121] | 9.26 | – | > 25 | – | 5.88 | 38.6 | > 25 | 3.83 | – | –
6 | Fc1ccc(N2CCCN(c3ccc(Cn4ccnc4)cn3)CC2)cc1 [UCSD-0828381] | 1.16 | 98.9 | 23.9 | 3.83 | 52.6 | 34.7 | > 25 | – | – | –
7 | COc1ccc2cc(C3CN(C(=O)CCNC(C)=O)CCO3)ccc2c1 (stereo not drawn) [UCSD-0829391] | 0.333 | 85.2 | > 25 | – | 2.45 | 67.5 | 9.9 | -3.5 | -1.1 | –
8 | c1ccc(OCCNc2ncnc3sc4c(c23)CCNC4)cc1 [UCSD-0829760] | 9.15 | 73 | > 25 | – | 42.9 | 7.54 | > 25 | -2.42 | – | –
9 | CC(=O)N1CCN(Cc2cccc3c2sc2ccccc23)CC(O)C1 (stereo not drawn) [UCSD-0830872] | 5.87 | 91 | > 25 | – | 10.8 | 15.6 | > 25 | 6.03 | – | –
10 | CCc1cnc(N)nc1NC(C)c1ccc(C)c(C)c1 (stereo not drawn) [UCSD-0831195] | 0.433 | 89.9 | > 25 | – | 56 | 17.1 | > 50 | 3.76 | – | –
11 | CNC(=O)CCC(=O)N1CCOC(c2ccc3cc(OC)ccc3c2)C1 (stereo not drawn) [UCSD-0831800] | 0.000954 | 88.9 | > 25 | – | 1 | 66.4 | 23.5 | -0.85 | – | 3.9
12 | COc1ccc(-c2cc(CNc3ncnc4c3CCNCC4)no2)cc1 [UCSD-0833048] | 10.2 | 91.8 | > 25 | 4.02 | 49.3 | 0.184 | > 25 | – | – | –
13 | CC(C)(CO)Nc1ccc(-c2nc(-c3ccccc3F)no2)cn1 [UCSD-0833103] | < 0.000141 | 98.5 | > 25 | – | 34.7 | 93.7 | 0.045 | 2.86 | – | –
14 | CC(Nc1ncnc2c1CCNC2)c1ccc2c(c1)CCCC2 (stereo not drawn) [UCSD-0833335] | 9.75 | 79.1 | 18.4 | 0.57 | 57.6 | 12.6 | > 25 | – | – | –
15 | Cc1cc(NC(=O)c2ccc(CN3CC[C@H](O)C3)cc2)ccc1F [UCSD-0834308] | < 0.000282 | 104 | > 50 | – | 10.3 | 100 | < 0.0244 | 7.88 | – | –
16 | CCOC(=O)N1CCN(c2nc(CCN)nc3sc(C)c(C)c23)CC1 [UCSD-0834429] | 8.74 | 87.7 | > 25 | – | 28 | 5.96 | > 25 | -5.69 | – | -49.3
